The values below come from the NIST ThermoML archive (doi:10.1016/j.fluid.2015.06.029).

Structures are written as SMILES. ± gives the expanded uncertainty stated by the source.

A short description of this data set: refractive index (Na D-line) (dimensionless). Conditions: 303.15 K; 101.33 kPa; Liquid; Standard Abbe refractometry.
For orientation: refractive index means the speed of light in vacuum divided by its phase velocity in the sample. On to `CCCCC(=O)O` [pentanoic acid], for which the refractive index is given as 1.4047 ± 0.0009. For `CCCC(=O)O` [butanoic acid], the refractive index is listed as 1.3947 ± 0.0009.

Turning to `CC(=O)O` [acetic acid], the refractive index is 1.3716 ± 0.0009. As for `CC(C)CC(=O)O` [3-methylbutanoic acid], the refractive index was 1.3997 ± 0.0009. For `CCCCC` [pentane] the value was 1.3523 ± 0.0009. For `O=S1(=O)CCCC1` [sulfolane] the value was 1.4823 ± 0.0009.

Consider `CC(C)C(=O)O` [2-methylpropanoic acid], for which the refractive index is listed as 1.3893 ± 0.0009. The result for `CCC(=O)O` [propanoic acid] reads 1.3829 ± 0.0009.
